In US11919856B2, “Compounds” (UCL BUSINESS LTD, priority 2018, dated 2024):

Legend:
[1] = target: T1, antichymotrypsin (Homo sapiens, UniProt P01011); assay: Serpin inhibitory activity, antichymotrypsin; assay type: biochemical; details: incubation with 50 μM
T1 sequence (P01011 24-423): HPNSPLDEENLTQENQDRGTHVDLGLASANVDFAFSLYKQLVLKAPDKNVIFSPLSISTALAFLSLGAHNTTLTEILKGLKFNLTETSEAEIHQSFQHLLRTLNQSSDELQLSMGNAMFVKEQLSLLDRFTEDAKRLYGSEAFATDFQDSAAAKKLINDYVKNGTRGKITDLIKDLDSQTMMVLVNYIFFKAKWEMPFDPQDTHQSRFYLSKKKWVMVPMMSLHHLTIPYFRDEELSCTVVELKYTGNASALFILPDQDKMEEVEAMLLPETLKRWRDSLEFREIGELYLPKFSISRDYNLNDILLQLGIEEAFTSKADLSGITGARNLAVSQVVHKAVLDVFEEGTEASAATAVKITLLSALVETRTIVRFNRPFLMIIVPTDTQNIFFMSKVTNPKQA
From the text: (§1) In order to investigate suitability of Compound 1 for progression into in vivo studies and the potential for taking forward as a clinical candidate for testing in human, Compound 1 was profiled against a panel of in vitro assays for off-targets considered predictive of potential safety liabilities. […] The measured potency of these marginal activities were at least 10-fold below the cellular activity of Compound 1 at blocking Z α1-antitrypsin polymerisation (pEC50 6.3). Loss of inhibitory activity represents a means by which possible off-target engagement with other serpins can be evaluated. However in contrast to α1-antitrypsin upon incubation with 50 μM Compound 1 the inhibitory activity of the homologues antithrombin, neuroserpin and antichymotrypsin was not affected.

[2] = target: T2, Z α1-antitrypsin (Homo sapiens, UniProt P01009, E366K/V237A); assay: Secretion of Z α1-antitrypsin from iPSC-derived hepatocytes (ZZ genotype); assay type: cell-based; set-up: a random insertion of the human Z α1-antitrypsin gene; from tissue; host or cells: liver and plasma of Z α1-antitrypsin transgenic mice (human Z transgene)
Description: In order to confirm that the potency and efficacy of Compound 1 in CHO-TET-ON-Z-A1AT was a reasonable estimate of what could be expected in hepatocytes with endogenous levels of expression, the effect of Compound 1 on the secretion and polymerisation of Z α1-antitrypsin was measured in iPSC-derived hepatocytes with the ZZ α1-antitrypsin genotype (Yusa et al. Nature. 2011; 478:391-4).

[3] = tested on: α1-antitrypsin; assay: Equilibrium unfolding with guanidine hydrochloride (bis-ANS fluorescence); assay type: biochemical; details: guanidinium hydrochloride, 50 μM Compound 1; 1.2 M in its absence
Description: Bis-ANS is a dye that reports the appearance of the unfolding intermediate of α1-antitrypsin (Dafforn et al. J Biol Chem. 1999; 274:9548-55.). In a microplate, 10 μl aliquots of M and Z α1-antitrypsin at 0.5 mg/ml with 100 μM bis-ANS and 100 μM Compound 1 (or an equivalent volume of DMSO) were rapidly mixed with various concentrations of guanidine hydrochloride giving a final concentration of 0-6 M denaturant in PBS. Fluorescence intensity measurements of bis-ANS (λex=385 nm, λem=490 nm) were recorded once a stable signal was achieved, and the values scaled to lie between 0 and 1.0.
(§2) Polymerisation of α1-antitrypsin occurs from a transient intermediate state known as M*, that is readily populated by the Z variant. One of the hallmarks of M* is its recognition by environment-sensitive fluorescent reporter dyes. Thermal shift assays that make use of the dye SYPRO Orange report the stability of the protein native state against heat-induced unfolding. […] Native state stability can also be probed by equilibrium unfolding using chemical denaturants, where a peak in bis-ANS fluorescence corresponds with a maximally populated unfolding intermediate.

[4] = Panel of in vitro assays for off-targets predictive of safety liabilities
From the text: as §1

[5] = target: T2, Z α1-antitrypsin; assay: Compound association experiments (intrinsic tryptophan fluorescence), Z α1-antitrypsin; assay type: binding; set-up: a random insertion of the human Z α1-antitrypsin gene; from tissue; host or cells: liver and plasma of Z α1-antitrypsin transgenic mice (human Z transgene)
Description: The intrinsic tryptophan fluorescence of α1-antitrypsin is dominated by Trp194 in the breach region (Tew et al. J Mol Biol. 2001 Nov. 9; 313(5):1161-9) and can be used to monitor the progress of compound binding. Plasma M and Z α1-antitrypsin were diluted to 0.2 mg/ml in 100 μM PBS, and Compound 1 (or an equivalent volume of DMSO) added to a concentration of 10 μM. Fluorescence (λex=280 nm, λem=330 nm) was monitored for at least 2 hours, and the half-time of change was calculated.
Kinetic data in stopped flow experiments were fitted to exponential decay curves with offset and linear slope, to account for a constant drift in the background, resulting in observed pseudo-first-order rate constants k(obs): y=A0·e^−k(obs)t+slope·t+offset where t=time and Ao=amplitude at t=0. The second-order on-rate was then obtained as the slope when plotting k(obs) values versus compound concentration. Off-rates were calculated from the on-rates and the KD values determined from the binding assays. Cell Biology

[6] = Blood exposure after single PO administration in male CD-1 mouse; assay type: in vivo
From the text: Compound 1 had in vitro ADME properties suitable for in vivo evaluation of the pre-clinical and clinical pharmacology of the molecule.

[7] = In vitro clearance in cryopreserved hepatocytes, dog; assay type: in vitro ADME
[8] = tested on: α1-antitrypsin; assay: Thermal shift assay (SYPRO Orange); assay type: biochemical; details: 50 µM Compound 1, SYPRO Orange, versus absence
Description: The native state stability of serpins on addition of compounds was investigated by thermal denaturation in the presence of a 5× concentration of SYPRO Orange dye solution (Life Technologies). A final protein concentration of 0.1 mg/ml and 50 uM compound suspended in PBS was used (Nettleship et al. Methods Mol Biol. 2008; 426:299-318). The samples were heated from 25° C.-95° C. at a rate of 1° C./min in three separate experiments on an Eppendorph Mastercycler Realplex4 quantitative real-time PCR instrument, and the fluorescence in the 605±15 nm bin recorded. The midpoint of denaturation (Tm) is the temperature at which the first derivative of fluorescence intensity against temperature reaches a maximum.
as §2

T2 sequence (P01009 25-418 V237A/E366K): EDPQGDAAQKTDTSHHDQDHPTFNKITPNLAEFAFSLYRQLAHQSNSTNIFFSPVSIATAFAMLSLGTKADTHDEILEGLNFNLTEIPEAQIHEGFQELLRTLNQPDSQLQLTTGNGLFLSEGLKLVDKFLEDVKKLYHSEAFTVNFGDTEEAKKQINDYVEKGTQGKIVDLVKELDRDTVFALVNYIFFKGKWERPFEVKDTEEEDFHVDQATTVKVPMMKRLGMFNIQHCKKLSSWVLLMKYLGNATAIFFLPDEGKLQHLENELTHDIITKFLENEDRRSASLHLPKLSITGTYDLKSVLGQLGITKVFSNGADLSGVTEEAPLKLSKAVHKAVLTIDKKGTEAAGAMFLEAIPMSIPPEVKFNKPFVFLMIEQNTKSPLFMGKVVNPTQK

CCC[C@@H](NC(=O)c1cccc2c1CC(=O)N2)[C@@H](O)c1cccc(F)c1C [Compound 1, N-[(1S,2R)-1-(3-fluoro-2-methylphenyl)-1-hydroxypentan-2-yl]-2-oxo-2,3-dihydro-1H-indole-4-carboxamide]
inhibitory activity of antichymotrypsin [1]: not affected
increase of secreted levels of Z α1-antitrypsin [2]: approximately 3 fold
EC50 ([2]; read-out: pEC50, secretion of Z α1-antitrypsin (converted)): 316 nM
denaturant concentration at peak bis-ANS fluorescence (maximally populated unfolding intermediate) [3]: 1.8 M
activity against off-target panel [4]: inactive against the majority of these targets
marginal activities in off-target panel [4]: low level of activity close to the lower limit of sensitivity in 16 assays
potency of marginal off-target activities below cellular activity ([4]; relative to cellular activity at blocking Z α1-antitrypsin polymerisation): at least 10 fold
koff ([5]; calculated from on-rate and KD, read-out: first-order dissociation rate): 6.1e-05 s⁻¹
kon ([5]; read-out: second-order association rate): 41000 M⁻¹ s⁻¹
DNAUCinf ([6]; single PO 10 mg/kg): 202±101
mean dose-normalised Cmax ([6]; single PO 10 mg/kg): 58±112
DNAUCinf ([6]; single PO 30 mg/kg): 294±47
mean dose-normalised Cmax ([6]; single PO 30 mg/kg): 113±27
DNAUCinf ([6]; single PO 100 mg/kg): 403±246
mean dose-normalised Cmax ([6]; single PO 100 mg/kg): 113±27
in vitro clearance in cryopreserved hepatocytes [7]: < 0.65 mL/min/g
transition midpoint temperature [8]: marked increase
